The test system of assay [1] is HepG2, MCF-7, MDA-231, and HeLa. The assay is described as follows: MTT cytotoxicity assay, range over the tested cancer cell lines. Conditions: Homo sapiens, range over HepG2, MCF-7, MDA-231 and HeLa, read-out: IC50 range against all tested cancer cell lines. The class given is cell-based. The procedure: In addition, the safety profile of the 2-sulfanylquinazolin-4(3H)-one derivatives was evaluated against normal human cells (WI38) […]. The standard MTT (3-(4,5-dimethylthiazol-2-yl)-2,5 diphenyl tetrazolium bromide) colorimetric assay protocol was used, as described by Mosmann. […] The results were expressed as growth inhibitory concentration (IC50) values.
The cell lines were obtained from ATCC (American Type Culture Collection). […] After incubation, the cells were treated with different concentrations of the synthesized compounds and incubated for 24 h. Afterward, the cells were washed with PBS, and 20 µL of MTT solution at 5 mg/mL was added, all incubated for 4 h. The MTT solution was discarded, and 100 µL of dimethyl sulfoxide (DMSO) was added per well. […] The relative cell viability in percentage was calculated as (A570 of treated cells/A570 of untreated cells) × 100.
On the technique in general: Tetrazolium dyes change colour on reduction, which living cells bring about.

For assay [2], the target named is T1, CDK2 (Homo sapiens, UniProt P24941).
T1 construct: purchased
The assay is described as follows: Kinase inhibition, ELISA kit. It counts as biochemical. Conditions: mean ± SD of three experiments. The procedure: (§1) The corresponding kinase inhibitory kit assays were used, and the results are expressed as IC50 values (µM), as presented in Table 2.
(§2) Afterward, the plate was incubated at room temperature for 2.5 h and then washed with PBS. A total of 100 μL of the prepared biotin antibody was added and incubated at room temperature for an additional 1 h, and then 100 μL of streptavidin solution was added and incubated at room temperature for another 45 min. After washing, 100 μL of TMB substrate reagent was added and incubated for 30 min at room temperature. Finally, about 50 μL of the stop solution was added and then read at 450 nm immediately. A standard curve was drawn, with concentrations on the X-axis and absorbance on the Y-axis.
(In an ELISA, binding on a coated surface is turned into a signal by an enzyme label.)

The target of assay [3] is T2, HER2 (Homo sapiens, UniProt P04626).
T2 construct: purchased
The assay is described as follows: Kinase inhibition, ELISA kit. It counts as biochemical. The settings on record: mean ± SD of three experiments. The procedure: as §1, §2

For assay [4], the target named is T3, VEGFR2 (Homo sapiens, UniProt P35968).
T3 construct: purchased
The assay is described as follows: Kinase inhibition, ELISA kit. The class given is biochemical. The settings on record: mean ± SD of three experiments. The procedure:
. The corresponding kinase inhibitory kit assays were used, and the results are expressed as IC50 values (µM), as presented in Table 2. […]. The inhibitory activity of compound 5d against CDK2, HER2, EGFR, and VEGFR2 was evaluated using the corresponding human kinases ELISA kit (Enzyme-Linked Immunosorbent Assay). In brief, specific antibodies for each kinase were seeded on a 96-well plate, and 100 μL of the standard solution or compound 5d was added. Afterward, the plate was incubated at room temperature for 2.5 h and then washed with PBS. A total of 100 μL of the prepared biotin antibody was added and incubated at room temperature for an additional 1 h, and then 100 μL of streptavidin solution was added and incubated at room temperature for another 45 min. After washing, 100 μL of TMB substrate reagent was added and incubated for 30 min at room temperature. Finally, about 50 μL of the stop solution was added and then read at 450 nm immediately. A standard curve was drawn, with concentrations on the X-axis and absorbance on the Y-axis.

Assay [5] has as its system HepG2 cells. The assay is described as follows: Flow cytometry analysis of cell cycle. The class given is cell-based, human. The settings on record: HepG2, 7.1 µM, 24 h. The procedure:
In order to investigate apoptosis, the most cytotoxic compound in anti-proliferative assay 5d was further exposed to […] using the standard Annexin V/PI double staining procedure.
Flow cytometry analysis was conducted to assess the effect of compound 5d on the cell cycle distribution in HepG2 cells. The Flow Cytometry Kit for cell cycle analysis (ab139418_Propidium Iodide Flow Cytometry Kit/BD) was used in this test. First, the HepG2 cells were seeded in six-well plates at a density of 2 × 10^5 cells/well and incubated for 24 h. In the second step, 10% FBS was added, and the cells were incubated at 37 °C and 5% CO2. The medium was replaced with (DMSO 1% v/v) containing 7.1 µM of compound 5d and then incubated for 24 h. After that, the cells were fixed with 70% ethanol at 4 °C for 12 h and washed with cold PBS, and then rinsed with PBS. In the last step, 100 μL of RNase A was added to each well and incubated at 37 °C for 30 min and stained with 400 μL PI in the dark at room temperature for an additional 30 min. The stained cells were measured using an Epics XL-MCL™ Flow Cytometer (Beckman Coulter), and the data were analyzed using Flowing software (version 2.5.1, Turku Centre for Biotechnology, Turku, Finland).

T2 sequence (P04626 23-1255): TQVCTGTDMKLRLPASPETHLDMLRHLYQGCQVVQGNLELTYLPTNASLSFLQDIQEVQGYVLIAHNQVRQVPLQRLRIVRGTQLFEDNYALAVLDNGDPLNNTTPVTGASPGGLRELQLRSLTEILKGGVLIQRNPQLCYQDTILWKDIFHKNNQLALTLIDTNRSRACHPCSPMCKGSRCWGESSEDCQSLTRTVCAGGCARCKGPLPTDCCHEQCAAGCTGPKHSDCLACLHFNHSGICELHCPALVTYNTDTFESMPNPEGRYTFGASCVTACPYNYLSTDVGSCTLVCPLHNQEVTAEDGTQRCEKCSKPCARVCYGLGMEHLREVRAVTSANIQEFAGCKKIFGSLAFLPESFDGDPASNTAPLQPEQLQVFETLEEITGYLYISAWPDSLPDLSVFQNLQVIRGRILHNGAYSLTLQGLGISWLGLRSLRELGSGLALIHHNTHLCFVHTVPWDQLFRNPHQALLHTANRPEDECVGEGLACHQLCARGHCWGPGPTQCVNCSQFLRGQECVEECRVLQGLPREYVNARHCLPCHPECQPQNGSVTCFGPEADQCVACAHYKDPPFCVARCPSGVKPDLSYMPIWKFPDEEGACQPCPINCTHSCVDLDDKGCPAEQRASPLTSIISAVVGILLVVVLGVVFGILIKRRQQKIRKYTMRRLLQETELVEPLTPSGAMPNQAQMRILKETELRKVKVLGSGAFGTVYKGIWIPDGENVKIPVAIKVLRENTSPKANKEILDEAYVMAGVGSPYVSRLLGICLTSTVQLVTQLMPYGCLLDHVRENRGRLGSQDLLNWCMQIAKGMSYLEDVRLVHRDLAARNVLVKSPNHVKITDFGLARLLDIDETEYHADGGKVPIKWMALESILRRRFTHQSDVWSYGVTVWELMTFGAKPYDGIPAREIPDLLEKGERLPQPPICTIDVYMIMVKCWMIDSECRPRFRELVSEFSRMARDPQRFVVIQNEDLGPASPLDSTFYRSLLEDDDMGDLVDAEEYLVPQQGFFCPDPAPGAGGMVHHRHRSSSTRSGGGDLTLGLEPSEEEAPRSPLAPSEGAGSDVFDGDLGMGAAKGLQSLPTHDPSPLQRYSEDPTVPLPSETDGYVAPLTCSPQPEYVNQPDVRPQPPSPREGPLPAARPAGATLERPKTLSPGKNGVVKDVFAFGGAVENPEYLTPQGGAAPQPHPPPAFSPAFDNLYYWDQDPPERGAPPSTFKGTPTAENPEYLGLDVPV
T3 sequence (P35968 20-1356): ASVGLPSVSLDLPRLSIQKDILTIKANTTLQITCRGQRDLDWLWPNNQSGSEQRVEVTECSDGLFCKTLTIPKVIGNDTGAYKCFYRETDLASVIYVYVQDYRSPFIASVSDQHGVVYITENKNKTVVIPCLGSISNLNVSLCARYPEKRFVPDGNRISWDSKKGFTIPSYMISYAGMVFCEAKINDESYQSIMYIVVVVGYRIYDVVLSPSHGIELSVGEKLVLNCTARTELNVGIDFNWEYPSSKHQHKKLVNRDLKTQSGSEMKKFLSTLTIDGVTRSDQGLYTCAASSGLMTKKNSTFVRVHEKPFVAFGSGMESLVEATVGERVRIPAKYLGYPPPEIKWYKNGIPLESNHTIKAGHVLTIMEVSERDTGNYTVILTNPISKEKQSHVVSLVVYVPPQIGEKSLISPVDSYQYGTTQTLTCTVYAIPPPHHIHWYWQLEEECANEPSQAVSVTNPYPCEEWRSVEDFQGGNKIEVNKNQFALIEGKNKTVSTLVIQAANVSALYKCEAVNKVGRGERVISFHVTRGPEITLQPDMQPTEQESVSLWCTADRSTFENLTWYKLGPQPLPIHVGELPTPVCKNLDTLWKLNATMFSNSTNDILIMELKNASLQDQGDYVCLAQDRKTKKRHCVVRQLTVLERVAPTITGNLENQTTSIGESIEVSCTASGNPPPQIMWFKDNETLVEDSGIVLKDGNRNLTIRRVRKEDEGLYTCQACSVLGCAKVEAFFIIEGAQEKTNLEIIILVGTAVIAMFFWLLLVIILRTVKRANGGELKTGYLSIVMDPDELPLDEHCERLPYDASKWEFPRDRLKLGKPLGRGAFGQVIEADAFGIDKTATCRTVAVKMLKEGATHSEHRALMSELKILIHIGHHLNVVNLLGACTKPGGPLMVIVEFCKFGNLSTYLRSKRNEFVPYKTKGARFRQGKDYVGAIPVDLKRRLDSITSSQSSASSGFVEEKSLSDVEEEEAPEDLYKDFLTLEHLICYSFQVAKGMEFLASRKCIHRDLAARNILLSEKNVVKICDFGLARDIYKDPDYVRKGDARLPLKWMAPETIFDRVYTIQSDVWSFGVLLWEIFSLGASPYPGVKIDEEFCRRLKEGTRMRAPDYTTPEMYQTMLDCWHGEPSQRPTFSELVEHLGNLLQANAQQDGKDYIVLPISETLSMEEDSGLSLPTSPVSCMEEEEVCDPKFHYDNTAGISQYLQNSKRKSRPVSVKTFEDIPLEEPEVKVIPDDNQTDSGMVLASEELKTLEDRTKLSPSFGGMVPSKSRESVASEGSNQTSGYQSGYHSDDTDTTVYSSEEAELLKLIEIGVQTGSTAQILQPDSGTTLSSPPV

As a reminder, the IC50 is the point on the concentration scale where inhibition reaches its midpoint. On to `Cc1ccc(-n2c(SCc3ccc(Cl)cc3)nc3ccc(F)cc3c2=O)cc1` [Compound 5d, 2-(4-Chloro-benzylsulfanyl)-6-fluoro-3-(4-methylArenyl)-3H-quinazolin-4-one], for which the IC50 in assay [1] is 1.94 to 7.1 µM; in assay [2], 2.1 ± 0.126 µM; in assay [3], 0.184 ± 0.008 µM; in assay [4], 0.336 ± 0.009 µM. The “phase of cell cycle arrest” value in assay [5] was “S phase”. Moreover, in assay [5] (in comparison to the control), the “drop in the cell population at the G0-G1 phase” value was found to be 4.5%. Moreover, the “drop in the cell population at the G2/M phase” value in assay [5] (in comparison to the control) turned out to be 4.73%. In addition, in assay [5] (in comparison to the control), the “increase in the cell population in the S phase” value was 9.23%.
